Measured values: ChEMBL document CHEMBL5352419, “Design, synthesis, and biological evaluation of tetrahydroquinoline amphiphiles as membrane-targeting antimicrobials against pathogenic bacteria and fungi” (Eur J Med Chem, 2022)
In brackets after ≈: the same amount, converted by molar mass. Activity calls are given as the source filed them. No cut-off for these calls is given here.

Experiments:
Staphylococcus aureus [1] = assay: Antimicrobial activity against Staphylococcus aureus ATCC29213 assessed as bacterial growth inhibition incubated for 24 hrs by Muller Hinton broth based dilution assay; type: functional
Escherichia coli [2] = assay: Antimicrobial activity against Escherichia coli ATCC25922 assessed as bacterial growth inhibition incubated for 24 hrs by Muller Hinton broth based dilution assay; type: functional
Pseudomonas aeruginosa = assay: Antimicrobial activity against Pseudomonas aeruginosa ATCC9027 assessed as bacterial growth inhibition incubated for 24 hrs by Muller Hinton broth based dilution assay; type: functional
Acinetobacter baumannii [3] = assay: Antimicrobial activity against Acinetobacter baumannii ATCC17978 assessed as bacterial growth inhibition incubated for 24 hrs by Muller Hinton broth based dilution assay; type: functional
Staphylococcus aureus [4] = assay: Antimicrobial activity against methicillin-resistant Staphylococcus aureus NCTC10442 assessed as bacterial growth inhibition incubated for 24 hrs in presence of 3220 ug/mL Na+ by Muller Hinton broth based dilution assay; type: functional
Escherichia coli [5] = assay: Antimicrobial activity against Escherichia coli ATCC25922 assessed as bacterial growth inhibition incubated for 24 hrs in presence of 3220 ug/mL Na+ by Muller Hinton broth based dilution assay; type: functional
Candida albicans [6] = assay: Antimicrobial activity against Candida albicans ATCC10231 assessed as fungal growth inhibition incubated for 48 hrs in presence of 3220 ug/mL Na+ by Sabouraud Dextrose broth based dilution assay; type: functional
Candida albicans [7] = assay: Antimicrobial activity against Candida albicans ATCC10231 assessed as fungal growth inhibition incubated for 48 hrs in presence of 175.5 ug/mL K+ by Sabouraud Dextrose broth based dilution assay; type: functional
Staphylococcus aureus [8] = assay: Antimicrobial activity against Staphylococcus aureus ATCC29213 assessed as bacterial growth inhibition incubated for 24 hrs in presence of 100 ug/mL Ca2+ by Muller Hinton broth based dilution assay; type: functional
Acinetobacter baumannii [9] = assay: Antimicrobial activity against Acinetobacter baumannii ATCC17978 assessed as bacterial growth inhibition incubated for 24 hrs in presence of 100 ug/mL Ca2+ by Muller Hinton broth based dilution assay; type: functional
Candida albicans [10] = assay: Antimicrobial activity against Candida albicans ATCC10231 assessed as fungal growth inhibition incubated for 48 hrs in presence of 100 ug/mL Ca2+ by Sabouraud Dextrose broth based dilution assay; type: functional
Staphylococcus aureus [11] = assay: Antimicrobial activity against Staphylococcus aureus ATCC29213 assessed as bacterial growth inhibition incubated for 24 hrs in presence of 24.3 ug/mL Mg2+ by Muller Hinton broth based dilution assay; type: functional
Staphylococcus aureus [12] = assay: Antimicrobial activity against methicillin-resistant Staphylococcus aureus NCTC10442 assessed as bacterial growth inhibition incubated for 24 hrs in presence of 24.3 ug/mL Mg2+ by Muller Hinton broth based dilution assay; type: functional
Acinetobacter baumannii [13] = assay: Antimicrobial activity against Acinetobacter baumannii ATCC17978 assessed as bacterial growth inhibition incubated for 24 hrs in presence of 24.3 ug/mL Mg2+ by Muller Hinton broth based dilution assay; type: functional
Staphylococcus aureus [14] = assay: Induction of drug resistance in Staphylococcus aureus ATCC29213 assessed as change in MIC at sub-inhibitory concentration incubated for 21 to 22 passages; type: functional
Escherichia coli [15] = assay: Induction of drug resistance in Escherichia coli ATCC25922 assessed as change in MIC at sub-inhibitory concentration incubated for 21 to 22 passages; type: functional
Candida albicans [16] = assay: Induction of drug resistance in Candida albicans ATCC10231 assessed as change in MIC at sub-inhibitory concentration incubated for 21 to 22 passages; type: functional
Cell membrane [17] = assay: Disruption of membrane integrity in Staphylococcus aureus ATCC29213 assessed as increase in fluorescence intensity at 1 to 8 times of MIC measured for 1 hr by SYTOX green dye based fluorescence analysis
Cell membrane [18] = assay: Disruption of membrane integrity in Candida albicans ATCC10231 assessed as increase in fluorescence intensity at 1 to 8 times of MIC measured for 1 hr by SYTOX green dye based fluorescence analysis
Cell membrane [19] = assay: Disruption of membrane integrity in Escherichia coli ATCC25922 assessed as red fluorescence at 8 times of MIC incubated for 2 hrs under dark condition by SYTO 9 and PI staining based laser confocal microscopy analysis
Staphylococcus aureus [20] = assay: Antibiofilm activity against Staphylococcus aureus ATCC29213 assessed as inhibition of biofilm formation at 3.125 ug/mL incubated for 24 hrs by crystal violet staining based analysis relative to control; type: functional
Escherichia coli [21] = assay: Antibiofilm activity against Escherichia coli ATCC25922 assessed as inhibition of biofilm formation at 0.78 ug/mL incubated for 24 hrs by crystal violet staining based analysis relative to control; type: functional
Escherichia coli [22] = assay: Antibiofilm activity against Escherichia coli ATCC25922 assessed as inhibition of biofilm formation at 6.25 ug/mL incubated for 24 hrs by crystal violet staining based analysis relative to control; type: functional
Staphylococcus aureus [23] = assay: Disruption of preformed biofilm in Staphylococcus aureus ATCC29213 assessed as residual preformed biofilm at 0.39 ug/mL incubated for 24 hrs by crystal violet staining based analysis relative to control; type: functional; details: dose 0.39 µg/ml
Staphylococcus aureus [24] = assay: Disruption of preformed biofilm in Staphylococcus aureus ATCC29213 assessed as residual preformed biofilm at 3.125 ug/mL incubated for 24 hrs by crystal violet staining based analysis relative to control; type: functional; details: dose 3.125 µg/ml
Staphylococcus aureus [25] = assay: Disruption of preformed biofilm in Staphylococcus aureus ATCC29213 assessed as residual preformed biofilm at 12.5 ug/mL incubated for 24 hrs by crystal violet staining based analysis relative to control; type: functional; details: dose 12.5 µg/ml
Escherichia coli [26] = assay: Disruption of preformed biofilm in Escherichia coli ATCC25922 assessed as residual preformed biofilm at 3.125 ug/mL incubated for 24 hrs by crystal violet staining based analysis relative to control; type: functional; details: dose 3.125 µg/ml
[27] = Cytotoxicity against mouse J774.A1 cells assessed as viable cells at 3.125 ug/mL incubated for 24 hrs by CCK-8 assay relative to control; type: toxicity, cell-based; details: at 3.125 µg/mL, read-out: Activity
[28] = Cytotoxicity against mouse J774.A1 cells assessed as viable cells at 6.25 ug/mL incubated for 24 hrs by CCK-8 assay relative to control; type: toxicity, cell-based; details: at 6.25 µg/mL, read-out: Activity
[29] = Cytotoxicity against mouse J774.A1 cells assessed as viable cells at 50 ug/mL incubated for 24 hrs by CCK-8 assay relative to control; type: toxicity, cell-based; details: at 50 µg/mL, read-out: Activity
[30] = Cytotoxicity against mouse NCTC clone 929 cells assessed as viable cells at 6.25 ug/mL incubated for 24 hrs by CCK-8 assay relative to control; type: toxicity, cell-based; details: NCTC clone 929 (L929) cells, at 6.25 µg/mL, read-out: Activity
[31] = Cytotoxicity against mouse NCTC clone 929 cells assessed as viable cells at 25 ug/mL incubated for 24 hrs by CCK-8 assay relative to control; type: toxicity, cell-based; details: NCTC clone 929 (L929) cells, at 25 µg/mL, read-out: Activity
[32] = Cytotoxicity against mouse corneal epithelial cells assessed as viable cells at 25 ug/mL incubated for 24 hrs by CCK-8 assay relative to control; type: toxicity, cell-based, Corneal epithelial cell; details: at 25 µg/mL, read-out: Activity

| Compound | MIC (Staphylococcus aureus [1]) [µg/mL] | MIC (Escherichia coli [2]) [µg/mL] | MIC (Pseudomonas aeruginosa) [µg/mL] | MIC (Acinetobacter baumannii [3]) [µg/mL] | MIC (Staphylococcus aureus [4]) [µg/mL] | MIC (Escherichia coli [5]) [µg/mL] | MIC (Candida albicans [6]) [µg/mL] | MIC (Candida albicans [7]) [µg/mL] | MIC (Staphylococcus aureus [8]) [µg/mL] | MIC (Acinetobacter baumannii [9]) [µg/mL] | MIC (Candida albicans [10]) [µg/mL] | MIC (Staphylococcus aureus [11]) [µg/mL] | MIC (Staphylococcus aureus [12]) [µg/mL] | MIC (Acinetobacter baumannii [13]) [µg/mL] | Activity (Staphylococcus aureus [14]) | Activity (Escherichia coli [15]) | Activity (Candida albicans [16]) | Activity (Cell membrane [17]) | Activity (Cell membrane [18]) | Activity (Cell membrane [19]) | also measured |
| --- | --- | --- | --- | --- | --- | --- | --- | --- | --- | --- | --- | --- | --- | --- | --- | --- | --- | --- | --- | --- | --- |
| CCCCCCCCCN1CCCc2cc(OCCCCNC(=N)N)ccc21 | 1.56 (≈ 4.01 µM) | 1.56 (≈ 4.01 µM) | 6.25 (≈ 16.1 µM) | 1.56 (≈ 4.01 µM) | 0.78 | 1.56 | 1.56 | 1.56 | 0.78 | 3.12 | 1.56 | 0.78 | 0.78 | 3.12 | inactive | inactive | inactive | Dose-Dependent Effect | Dose-Dependent Effect | Active | inhibition at 3.125 µg/mL (Staphylococcus aureus [20]): 102%; inhibition at 0.78 µg/mL (Escherichia coli [21]): 49.9%; inhibition at 6.25 µg/mL (Escherichia coli [22]): 100%; Activity (Staphylococcus aureus [23]): 81.8%; Activity (Staphylococcus aureus [24]): 10.76%; Activity (Staphylococcus aureus [25]): 0.3%; Activity (Escherichia coli [26]): 32.54%; viability at 24 h, 3.125 ug/mL [27]: 98.3%; viability at 24 h, 6.25 ug/mL [28]: 97.4%; viability at 24 h, 50 ug/mL [29]: 42.5%; viability at 24 h, 6.25 ug/mL [30]: 92.1%; viability at 24 h, 25 ug/mL [31]: 72.9%; viability at 24 h, 25 ug/mL [32]: 57.7% |
| CC(C)=CCN1CCCc2cc(OCCCCCCCCNC(=N)N)ccc21 | 1.56 (≈ 4.04 µM) | 3.12 (≈ 8.08 µM) | 6.25 (≈ 16.2 µM) | 3.12 (≈ 8.08 µM) | 0.78 | 3.12 | 0.78 | 0.78 | 0.78 | 3.12 | 1.56 | 0.78 | 0.78 | 3.12 | inactive | inactive | inactive | Dose-Dependent Effect | Dose-Dependent Effect | Active | inhibition at 3.125 µg/mL (Staphylococcus aureus [20]): 100%; inhibition at 0.78 µg/mL (Escherichia coli [21]): 32.2%; inhibition at 6.25 µg/mL (Escherichia coli [22]): 101%; Activity (Staphylococcus aureus [23]): 80.76%; Activity (Staphylococcus aureus [24]): 29.55%; Activity (Staphylococcus aureus [25]): 7.12%; Activity (Escherichia coli [26]): 47.23%; viability at 24 h, 3.125 ug/mL [27]: 99.5%; viability at 24 h, 6.25 ug/mL [28]: 96.3%; viability at 24 h, 50 ug/mL [29]: 31.3%; viability at 24 h, 6.25 ug/mL [30]: 91.2%; viability at 24 h, 25 ug/mL [31]: 77.9%; viability at 24 h, 25 ug/mL [32]: 76.9% |
